Assay results: patent US11622951B2, “Alpha-aminoadipate for treatment of vision loss and restoring sight” (The Schepens Eye Research Institute, Inc., priority 2013, dated 2023)

Columns and labels:
[1] = test system: retinal glial cells (GFAP expression); assay: GFAP immunolabeling of retinal glia after subretinal injection; format: in vivo, mouse; conditions: adult wild-type mice
Experimental: Mice were anesthetized by intraperitoneal injection of ketamine (62.5 mg/kg) and xylazine (12.5 mg/kg) and transcardially perfused with phosphate buffered saline (PBS) followed by 4% paraformaldehyde in PBS. Retinal flat-mounts or transverse retinal sections (14 μm) were preblocked with PBS containing 3% bovine serum albumin (Sigma-Aldrich, St. Louis, Mo.) and 0.3% Triton X (Sigma-Aldrich) and incubated, first, with primary antibody overnight, and then with secondary antibody for 1 hour at room temperature. […] Assessment of morphological integration were quantified by counting EGFP+ cells located outside of transplanted cell clusters in retinal whole-mounts. Statistical significance was determined by either the two tailed student t test or ANOVA.
Retinal astrocytes and Müller glia are central to the homeostatic and metabolic support of retinal neurons; whereas, after injury these cells develop glial scar that forms critical barriers to neuron regeneration and integration by retinal progenitor cells. […] Retinal glial morphology was examined by immunolabeling for glial marker GFAP and assessed the level of GFAP expression by Western blot at day 1-7 post injection. Expression of GFAP is widely detected in the normal mouse retinas (FIG. 1a).

[2] = test system: Müller glia; assay: Electron microscopy count of Müller cell nuclei in retinal sections; format: in vivo, mouse; conditions: 3 days after subretinal injection 1 μg/μl, vs saline-injected group
Experimental: Mice were sacrificed 3 days after receiving the injection of α-AA (1 μg/μl) or saline as controls by injection of overdose of ketamine/xylazine followed by cervical dislocation, and the eyeballs were dissected, fixed with Karnovsky's fixative (pH 7.4) for 24 h. The quadrants of the eyes that received subretinal injection were dissected and embedded in Epon-Araldite. Semi-thin sections (1-2 μm) were stained with phenylenediamine phase staining. The sections were examined and photographed with a transmission electron microscope (EM410; Philips; Eindhoven, The Netherlands). Ten randomly selected retinal sections of each eye were photographed at 1900× magnification, and all Müller glial nuclei in the photomicrograph were counted.
Retinal sections were examined under electron microscopy, in which Müller glia were identified by their characteristic angular nuclei, dense chromatin and dark perinuclear cytoplasm (FIG. 1e-h). […] This was also confirmed by immunolabeling for specific markers of retinal neurons, including photoreceptors (recoverin) and amacrine cells (syntaxin) (FIG. 2).

[3] = test system: Muller cells; assay: Müller cell proliferation and trans-differentiation in diseased eyes of Rho-/- mice; format: in vivo, mouse; conditions: administered directly to the diseased eyes of Rho-/- mice
Excerpt: Photoreceptor cell death can be measured or assessed by electroretinography, and a reduction or absence of a-wave and/or b-waves. […] Furthermore, proliferating Muller cells were also shown to be capable of trans-differentiating into retinal progenitor cells (expressing retinal progenitor markers).

[4] = test system: Muller cells; conditions: wild-type mice with normal retinas, Takeda et al. 2009; cited from earlier work

## NC(CCCC(=O)O)C(=O)O (stereo not drawn) [α-AA, alpha-aminoadipate]
[1]; by day 7 post injection
  GFAP immunostaining at the injection site: reappeared at the injection site
[1]; single subretinal injection 1 μg/μl, 1-3 days post injection
  GFAP expression around the injection site (immunolabeling): effectively eliminated GFAP expression
[2]
  reduction in counts of Müller cell nuclei: 30%
[3]
  proliferation of Muller cells: resulted in proliferation of Muller cells
[4]
  Muller cell proliferation in the retina: can stimulate Muller cell proliferation
